{
  "source": "paper PMC10885137",
  "about": "“Site-Directed Mutagenesis of VvCYP76F14 (Cytochrome P450) Unveils Its Potential for Selection in Wine Grape Varieties Linked to the Development of Wine Bouquet” (Journal of Agricultural and Food Chemistry, 2024)",
  "conditions_in_all_cases": "1 mM NADPH, ATR1 reductase, 100 mM Na/K phosphate pH 5.0, 26 °C, 1 h",
  "key": {"[1]": {"biological_target": "VvCYP76F14 (from \"L35\", full-bodied) (Vitis vinifera, UniProt A0A1B2ZBX8, D306A, form not given)", "sequence (A0A1B2ZBX8 entry or part of it D306A, form open)": "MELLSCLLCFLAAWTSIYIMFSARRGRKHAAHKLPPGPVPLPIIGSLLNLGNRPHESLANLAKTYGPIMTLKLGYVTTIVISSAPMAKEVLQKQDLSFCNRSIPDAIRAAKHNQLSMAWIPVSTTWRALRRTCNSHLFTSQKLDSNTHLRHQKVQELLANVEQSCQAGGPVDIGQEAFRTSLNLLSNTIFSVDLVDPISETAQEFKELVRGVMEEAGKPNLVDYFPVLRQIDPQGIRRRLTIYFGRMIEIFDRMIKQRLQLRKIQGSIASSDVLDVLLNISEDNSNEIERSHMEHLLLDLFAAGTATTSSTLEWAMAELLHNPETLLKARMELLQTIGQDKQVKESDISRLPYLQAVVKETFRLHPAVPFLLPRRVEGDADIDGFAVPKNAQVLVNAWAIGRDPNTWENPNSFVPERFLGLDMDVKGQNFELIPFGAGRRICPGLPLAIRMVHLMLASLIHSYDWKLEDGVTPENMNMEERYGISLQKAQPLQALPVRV", "source_text": "(§1) UPLC-MS/MS substrate depletion kinetics on VvCYP76F14 (from \"L35\", full-bodied)"}, "[2]": {"biological_target": "VvCYP76F14 (from \"L35\", full-bodied) (Vitis vinifera, UniProt A0A1B2ZBX8)", "sequence (A0A1B2ZBX8 entry or part of it)": "as the sequence (A0A1B2ZBX8 entry or part of it D306A, form open) above, with A306D counted along it", "source_text": "as §1"}, "[3]": {"biological_target": "VvCYP76F14 (from \"L35\", full-bodied) (Vitis vinifera, UniProt A0A1B2ZBX8, S485A, form not given)", "sequence (A0A1B2ZBX8 entry or part of it S485A, form open)": "as the sequence (A0A1B2ZBX8 entry or part of it D306A, form open) above, with A306D, S485A counted along it", "source_text": "as §1"}, "[4]": {"biological_target": "VvCYP76F14 (from \"L35\", full-bodied) (Vitis vinifera, UniProt A0A1B2ZBX8, I120L, form not given)", "sequence (A0A1B2ZBX8 entry or part of it I120L, form open)": "as the sequence (A0A1B2ZBX8 entry or part of it D306A, form open) above, with I120L, A306D counted along it", "source_text": "as §1"}, "[5]": {"biological_target": "VvCYP76F14 (from \"L35\", full-bodied) (Vitis vinifera, UniProt A0A1B2ZBX8, L298V, form not given)", "sequence (A0A1B2ZBX8 entry or part of it L298V, form open)": "as the sequence (A0A1B2ZBX8 entry or part of it D306A, form open) above, with L298V, A306D counted along it", "source_text": "as §1"}, "[6]": {"biological_target": "VvCYP76F14 (from \"L35\", full-bodied) (Vitis vinifera, UniProt A0A1B2ZBX8, F435A, form not given)", "sequence (A0A1B2ZBX8 entry or part of it F435A, form open)": "as the sequence (A0A1B2ZBX8 entry or part of it D306A, form open) above, with A306D, F435A counted along it", "source_text": "as §1"}, "[7]": {"biological_target": "VvCYP76F14 (from \"L35\", full-bodied) (Vitis vinifera, UniProt A0A1B2ZBX8, T188A, form not given)", "sequence (A0A1B2ZBX8 entry or part of it T188A, form open)": "as the sequence (A0A1B2ZBX8 entry or part of it D306A, form open) above, with T188A, A306D counted along it", "source_text": "as §1"}, "[8]": {"biological_target": "VvCYP76F14 (from \"L35\", full-bodied) (Vitis vinifera, UniProt A0A1B2ZBX8, G304A, form not given)", "sequence (A0A1B2ZBX8 entry or part of it G304A, form open)": "as the sequence (A0A1B2ZBX8 entry or part of it D306A, form open) above, with G304A, A306D counted along it", "source_text": "as §1"}},
  "data": [
    {"smiles": "C=CC(C)(O)CC/C=C(\\C)C=O", "note": "(centres unmarked) [(E)-8-oxolinalool]", "values": [
      {"measurement": "Km", "setting": "[1]", "value": "269 ± 17.7", "unit": "µM"},
      {"measurement": "Km", "setting": "[2]", "value": "41.4 ± 4.93", "unit": "µM"},
      {"measurement": "Km", "setting": "[3]", "value": "172 ± 9.99", "unit": "µM"}
    ]},
    {"smiles": "C=CC(C)(O)CCC=C(C)C", "note": "(centres unmarked) [linalool]", "values": [
      {"measurement": "Km", "setting": "[4]", "value": "156 ± 12.8", "unit": "µM"},
      {"measurement": "Km", "setting": "[5]", "value": "74.7 ± 7.89", "unit": "µM"},
      {"measurement": "Km", "setting": "[6]", "value": "288 ± 19.3", "unit": "µM"}
    ]},
    {"smiles": "C=CC(C)(O)CC/C=C(\\C)CO", "note": "(centres unmarked) [(E)-8-hydroxylinalool]", "values": [
      {"measurement": "Km", "setting": "[7]", "value": "77.4 ± 8.56", "unit": "µM"},
      {"measurement": "Km", "setting": "[8]", "value": "170 ± 13.6", "unit": "µM"}
    ]}
  ]
}
